The source of these data is PubChem BioAssay (NCI).

Test systems include SW-620 colon; IGROV1 ovarian; SF-295 CNS; RPMI-8226 leukemia; OVCAR-5 ovarian; NCI-H23 lung; ACHN renal; MCF7 breast; NCI-H460 lung; T-47D breast.
What all share (experiment): NCI anticancer screen, dose series, 48 h

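Tested at 5 concentrations; 48 h exposure; 96-well plates; endpoints linearly interpolated, else capped at highest concentration. GI50: concentration for 50% inhibition of growth. TGI: concentration producing complete growth inhibition.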

With `C[C@H]1C(Oc2ccc(O)cc2)OC2OC3(C)CCC4[C@H](C)CCC1C24OO3` (stereo partly drawn), the GI50 was 8.74 µM with SW-620 colon; 16.7 µM in the assay on IGROV1 ovarian; 16.2 µM in the assay on SF-295 CNS; 10.4 µM in the assay on OVCAR-5 ovarian; 12 µM with NCI-H23 lung; 3.97 µM in the assay with ACHN renal. Further, the GI50 is 12.6 µM in the assay with MCF7 breast, 15.1 µM with NCI-H460 lung and 2.1 µM in the assay on T-47D breast. Also, the TGI is 43.2 µM with SW-620 colon; 32.5 µM in the assay with IGROV1 ovarian; 34.5 µM in the assay with SF-295 CNS; > 63.1 µM with RPMI-8226 leukemia; 25.9 µM in the assay on OVCAR-5 ovarian; 27.7 µM in the assay with NCI-H23 lung. The TGI with ACHN renal turned out to be 19 µM; in the assay with MCF7 breast it was 32.5 µM; in the assay on NCI-H460 lung it was 30.5 µM; in the assay with T-47D breast, 26.9 µM.
With `CC(=O)OC1CC2C(C)(C)C(=O)C=CC2(C)C2CCC3(C)C(c4ccoc4)OC(=O)C4OC43C12C` (stereo not drawn), the TGI in the assay on SW-620 colon is > 100 µM; with IGROV1 ovarian, > 100 µM; in the assay with SF-295 CNS, > 100 µM; in the assay on RPMI-8226 leukemia it was 8.02 µM; in the assay on OVCAR-5 ovarian, > 100 µM; with NCI-H23 lung, 41.5 µM. In addition, the TGI with ACHN renal was > 100 µM; with MCF7 breast, 29.5 µM; with NCI-H460 lung, 16.1 µM; with T-47D breast it was > 100 µM.
In the case of `C#Cc1cccc(Nc2nc3ccc([N+](=O)[O-])cc3nc2Nc2cccc(C#C)c2)c1`, the GI50 was 0.291 µM with SW-620 colon; 0.354 µM with IGROV1 ovarian; 0.172 µM in the assay with SF-295 CNS; 0.218 µM in the assay with RPMI-8226 leukemia; 0.338 µM with OVCAR-5 ovarian; 0.265 µM in the assay with NCI-H23 lung. For the same compound, the GI50 in the assay with ACHN renal is 0.293 µM; in the assay with MCF7 breast, 0.266 µM; in the assay with NCI-H460 lung it was 0.209 µM; in the assay with T-47D breast, 0.259 µM. Also, the TGI in the assay on SW-620 colon came to 1.09 µM; with IGROV1 ovarian, 1.3 µM; with SF-295 CNS, 0.416 µM; with RPMI-8226 leukemia, 0.998 µM; in the assay on OVCAR-5 ovarian, 1.35 µM; in the assay on NCI-H23 lung, 0.911 µM. For the same compound, the TGI in the assay on ACHN renal stood at 1.16 µM; with MCF7 breast, 1.07 µM; in the assay on NCI-H460 lung, 0.899 µM; with T-47D breast, 0.889 µM.
Take `CNC1C(O)C(OC2C(N)CC(N)C(OC3OC(C(C)O)C(O)C(O)C3N)C2O)OCC1(C)O` (stereo not drawn): the TGI with SW-620 colon, in the assay with IGROV1 ovarian, in the assay with SF-295 CNS, in the assay with RPMI-8226 leukemia, in the assay with OVCAR-5 ovarian and in the assay with NCI-H23 lung was > 100 µM in each case. Further, the TGI in the assay with ACHN renal, in the assay with MCF7 breast, with NCI-H460 lung and with T-47D breast was > 100 µM in each case.
For `O=C1c2c(O)cc(O)cc2OC(c2ccc(O)cc2O)C1O` (stereo not drawn), the GI50 with SW-620 colon, in the assay on IGROV1 ovarian, with RPMI-8226 leukemia, with OVCAR-5 ovarian and with ACHN renal was > 100 µM each time. In addition, the TGI in the assay on SW-620 colon, in the assay on IGROV1 ovarian, in the assay on SF-295 CNS, in the assay with RPMI-8226 leukemia, in the assay with OVCAR-5 ovarian and in the assay with NCI-H23 lung was > 100 µM throughout. In addition, the TGI in the assay on ACHN renal, in the assay on MCF7 breast, with NCI-H460 lung and in the assay with T-47D breast was > 100 µM each time.
On to `CN(C[C@@H]1COCCO1)S(=O)(=O)Nc1ccc2ccc3ncc(-c4cnn(C)c4)cc3c(=O)c2c1`, for which the GI50 with SW-620 colon was 4.74 µM; in the assay with IGROV1 ovarian it was 2.5 µM; with SF-295 CNS it was 0.632 µM; in the assay on RPMI-8226 leukemia, 3.88 µM; in the assay with OVCAR-5 ovarian, > 81.2 µM; in the assay on NCI-H23 lung, 1.77 µM. In addition, the GI50 is 2.82 µM with ACHN renal, 12.8 µM with MCF7 breast, 4.26 µM in the assay on NCI-H460 lung and 5.54 µM in the assay with T-47D breast. Also, the TGI is > 100 µM with SW-620 colon; > 100 µM with IGROV1 ovarian; > 34.2 µM in the assay with SF-295 CNS; > 100 µM in the assay with RPMI-8226 leukemia; > 100 µM in the assay on OVCAR-5 ovarian; > 100 µM in the assay on NCI-H23 lung. Further, the TGI in the assay with ACHN renal, in the assay on MCF7 breast, in the assay with NCI-H460 lung and with T-47D breast was > 100 µM each time.
In the case of `N#Cc1ccc(C(c2ccc(C#N)cc2)n2cncn2)cc1`, the GI50 in the assay with SW-620 colon is > 5000 µM; with IGROV1 ovarian, 47.5 µM; in the assay on SF-295 CNS it was 182 µM; with RPMI-8226 leukemia, > 5000 µM; in the assay on OVCAR-5 ovarian, > 5000 µM; in the assay on NCI-H23 lung, > 5000 µM. In addition, the GI50 with ACHN renal, with MCF7 breast, with NCI-H460 lung and with T-47D breast was > 5000 µM throughout. Besides, the TGI in the assay on SW-620 colon, in the assay on SF-295 CNS, with RPMI-8226 leukemia, in the assay with OVCAR-5 ovarian, in the assay with NCI-H23 lung and in the assay on ACHN renal was > 5000 µM throughout. Also, the TGI in the assay with MCF7 breast, with NCI-H460 lung and with T-47D breast was > 5000 µM each time.
Turning to `CCOC(=O)c1cc2c(n1Cc1ccccc1)-c1oncc1CC2`, the GI50 with SW-620 colon was 3.48 µM; in the assay on IGROV1 ovarian, 4.98 µM; in the assay with SF-295 CNS, 2.89 µM; with RPMI-8226 leukemia it was 4.65 µM; in the assay on OVCAR-5 ovarian, 16.2 µM; in the assay on NCI-H23 lung, 6.37 µM. In addition, the GI50 with ACHN renal was 5.84 µM; with MCF7 breast, > 100 µM; with NCI-H460 lung, 3.08 µM; with T-47D breast, 4.66 µM. The TGI was > 100 µM in the assay on SW-620 colon; 60.1 µM in the assay on IGROV1 ovarian; 11.1 µM with SF-295 CNS; 30.2 µM with RPMI-8226 leukemia; > 100 µM in the assay on OVCAR-5 ovarian; 67.1 µM in the assay with NCI-H23 lung. Besides, the TGI in the assay on ACHN renal was 89 µM; in the assay with MCF7 breast it was > 100 µM; with NCI-H460 lung, 11.4 µM; with T-47D breast, 32 µM.
